In US10040798B2, “Pyrrolopyridazine inhibitors of IRAK4 activity” (MERCK SHARP & DOHME CORP., priority 2015, dated 2018):
Structures can show the parent of a compound that is named as a salt.

Molecular target: IRAK4 (Homo sapiens (Human), UniProt Q9NWZ3)
Assay: IRAK4 Kinase Assay (IMAP fluorescence polarization)
Type: biochemical
Conditions: 0.5 nM GST tagged IRAK4, 100 μM ATP, 30 minutes at 25° C., IMAP FP
Summary of the method: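 GST-tagged IRAK4 (0.5 nM) phosphorylated 100 nM fluorescent peptide RP7030 with 100 μM ATP in 10 mM Tris-HCl pH 7.2, MgCl2, DTT and Tween 20 for 30 min at 25 °C. Phosphorylation was read as the increase in fluorescence polarization after binding to IMAP nanoparticles.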

IRAK4, sequence (Q9NWZ3 whole entry): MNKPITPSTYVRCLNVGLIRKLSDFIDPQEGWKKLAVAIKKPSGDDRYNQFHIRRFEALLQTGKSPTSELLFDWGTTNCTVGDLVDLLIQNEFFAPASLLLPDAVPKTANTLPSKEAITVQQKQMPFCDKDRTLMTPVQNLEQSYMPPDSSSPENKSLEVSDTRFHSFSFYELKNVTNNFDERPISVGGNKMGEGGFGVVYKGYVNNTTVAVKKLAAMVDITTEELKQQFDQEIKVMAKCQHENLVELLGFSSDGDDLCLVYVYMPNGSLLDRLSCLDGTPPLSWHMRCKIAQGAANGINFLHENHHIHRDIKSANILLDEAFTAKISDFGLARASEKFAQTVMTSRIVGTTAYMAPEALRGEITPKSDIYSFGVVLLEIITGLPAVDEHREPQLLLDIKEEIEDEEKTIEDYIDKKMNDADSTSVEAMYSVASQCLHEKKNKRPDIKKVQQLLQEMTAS

| IC50 [µM] | SMILES |
| --- | --- |
| 0.825 | N#Cc1ccccc1NC(=O)c1ccc2ccc(N[C@@H]3CCCC(F)(F)[C@@H]3N)nn12 [Example 110, 2-{[(1R,2R)-2-amino-3,3-difluorocyclohexyl]amino}-N-(2-cyanophenyl)pyrrolo [1,2-b]pyridazine-7-carboxamide trifluoroacetate] |
| 0.472 | N[C@H]1CCCC[C@H]1Nc1ccc2ccc(C(=O)Nc3ccccc3C(F)F)n2n1 [Example 112, 2-{[(1R,2S)-2-aminocyclohexyl]amino}-N-[2-(difluoromethyl)phenyl]pyrrolo[1,2-b]pyridazine-7-carboxamide trifluoroacetate] |
| 0.221 | N[C@H]1CCCC[C@H]1Nc1ccc2ccc(C(=O)Nc3ccsc3C(F)(F)F)n2n1 [Example 116, 2-{[1R,2S)-2-aminocyclohexyl] amino}-N-[2-(trifluoromethyl) thiophen-3-yl] pyrrolo[1,2-b]pyridazine-7-carboxamide trifluoroacetate] |
| 7.39 | N[C@@H]1[C@H](Nc2ccc3ccc(C(=O)Nc4ccccc4C(F)F)n3n2)CCCC1(F)F [Example 118, 2-{[(1R,2R)-2-amino-3,3-difluorocyclohexyl]amino}-N-[2-(difluoromethyl)phenyl]pyrrolo[1,2-b]pyridazine-7-carboxamide trifluoroacetate] |
| 0.0005 | Cn1cc(NC(=O)c2ccc3ccc(N4C5CCC4CNC5)nn23)c(C(F)F)n1 [Example 119, 2-(3,8-Diazabicyclo[3.2.1]octan-8-yl)-N-(3-(difluoromethyl)-1-methyl-1H-pyrazol-4-yl)pyrrolo[1,2-b]pyridazine-7-carboxamide] |
| 0.039 | Cn1cc(NC(=O)c2ccc3ccc(N4C[C@@H]5CNC[C@H]4C5)nn23)c(C(F)(F)F)n1 [Example 122, 2-[(1S,5R)-(1R,5S)-3,6-diazabicyclo[3.2.1]oct-6-yl]-N-[1-methyl-3-(trifluoromethyl)-1H-pyrazol-4-yl]pyrrolo[1,2-b]pyridazine-7-carboxamide] |
| 0.114 | Cn1cc(NC(=O)c2ccc3ccc(N4C[C@H]5CNC[C@@H]4C5)nn23)c(C(F)(F)F)n1 [Example 123, 2-[(1S,5R)-(1R,5S)-3,6-diazabicyclo[3.2.1]oct-6-yl]-N-[1-methyl-3-(trifluoromethyl)-1H-pyrazol-4-yl]pyrrolo[1,2-b]pyridazine-7-carboxamide] |

Second part, the molecule before the results:

| SMILES | IC50 [µM] |
| --- | --- |
| N#Cc1ccccc1NC(=O)c1ccc2ccc(N[C@@H]3CCCC[C@@H]3N)nn12 [Example 106, 2-{[(1R,2S)-2-aminocyclohexyl]amino}-N-(2-cyanophenyl)pyrrolo [1,2-b]pyridazine-7-carboxamide trifluoroacetate] | 0.006 |
| N#Cc1ccccc1NC(=O)c1ccc2ccc(N3CCC[C@@H](N)C3)nn12 [Example 107, 2-[(3R)-3-aminopiperidin-1-yl]-N-(2-cyanophenyl) pyrrolo[1,2-b]pyridazine-7-carboxamide trifluoroacetate] | 0.026 |
| O=C(Nc1ccccc1C(F)(F)F)c1ccc2ccc(N3CCCNCC3)nn12 [Example 111, 2-(1,4-Diazepan-1-yl)-N-(2-(trifluoromethyl)phenyl)pyrrolo[1,2-b]pyridazine-7-carboxamide] | 1.42 |
| O=C(Nc1ccsc1C(F)(F)F)c1ccc2ccc(N3CCCNCC3)nn12 [Example 115, 2-(1,4-diazepan-1-yl)-N-[2-(trifluoromethyl)thiophen-3-yl]pyrrolo[1,2-b]pyridazine-7-carboxamide trifluoroacetate] | 2.02 |
| N[C@@H]1[C@H](Nc2ccc3ccc(C(=O)Nc4ccsc4C(F)(F)F)n3n2)CCCC1(F)F [Example 117, 2-{[(1R,2R)-2-amino-3,3-difluorocyclohexyyl]amino}-N-[2-(trifluoromethyl)thiophen-3-yl]pyrrolo[1,2-b]pyridazine-7-carboxamide trifluoroacetate] | 2.98 |
| Cn1cc(NC(=O)c2ccc3ccc(N4C5CCC4CNC5)nn23)c(C(F)(F)F)n1 [Example 120, 2-(3,8-diazabicyclo[3.2.1]oct-8-yl)-N-[1-methyl-3-(trifluoromethyl)-1H-pyrazol-4-yl]pyrrolo[1,2-b]pyridazine-7-carboxamide trifluoroacetate] | 0.002 |
